According to US9856220B2 (AbbVie Deutschland GmbH & Co. KG, priority 2011, dated 2018):

Key:
PDE10A = PDE10A (Homo sapiens (Human), UniProt Q9Y233); experiment: Measurement of PDE activity (recombinant PDE, cAMP HTRF); type: biochemical; settings: 20 nM cyclic nucleotide substrate, 60 minutes at 29 C
Method in brief: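 Recombinant human PDE10A in 20 mM Tris-HCl pH 7.5, 10 mM MgCl2, 0.1% BSA with 20 nM cyclic nucleotide substrate; reaction 60 min at 29 C after compound preincubation with enzyme. Residual cAMP detected by HTRF (cAMP-d2/anti-cAMP cryptate); IC50 from inhibitor concentration versus PDE activity.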

[1] = Determination of the microsomal half-life / microsomal clearance, rat liver microsomes; type: in vitro ADME; settings: 0.5 μM test substance, 0.25 mg of microsomal protein/ml, pH 7.4, 37° C.
Experimental: (§1) b) Determination of the Microsomal Half-Life:
(§2) The metabolic stability of the compounds of the invention was determined in the following assay.
(§3) The test substances were incubated in a concentration of 0.5 μM as follows:
(§4) 0.5 μM test substance are preincubated together with liver microsomes from different species (from rat, human or other species) (0.25 mg of microsomal protein/ml) in 0.05 M potassium phosphate buffer of pH 7.4 in microtiter plates at 37° C. for 5 min. The reaction is started by adding NADPH (1 mg/mL). After 0, 5, 10, 15, 20 and 30 min, 50 μl aliquots are removed, and the reaction is immediately stopped and cooled with the same volume of acetonitrile. The samples are frozen until analyzed. The remaining concentration of undegraded test substance is determined by MSMS. The half-life (T½) is determined from the gradient of the signal of test substance/unit time plot, it being possible to calculate the half-life of the test substance, assuming first order kinetics, from the decrease in the concentration of the compound with time. The microsomal clearance (mCl) is calculated from mCl=ln 2/T½/(content of microsomal protein in mg/ml)×1000 [ml/min/mg]

[2] = Determination of the microsomal half-life / microsomal clearance, human liver microsomes; type: in vitro ADME; settings: 0.5 μM test substance, 0.25 mg of microsomal protein/ml, pH 7.4, 37° C.
Experimental: as §1, §2, §3, §4

PDE10A, sequence (Q9Y233 whole entry, species assumed): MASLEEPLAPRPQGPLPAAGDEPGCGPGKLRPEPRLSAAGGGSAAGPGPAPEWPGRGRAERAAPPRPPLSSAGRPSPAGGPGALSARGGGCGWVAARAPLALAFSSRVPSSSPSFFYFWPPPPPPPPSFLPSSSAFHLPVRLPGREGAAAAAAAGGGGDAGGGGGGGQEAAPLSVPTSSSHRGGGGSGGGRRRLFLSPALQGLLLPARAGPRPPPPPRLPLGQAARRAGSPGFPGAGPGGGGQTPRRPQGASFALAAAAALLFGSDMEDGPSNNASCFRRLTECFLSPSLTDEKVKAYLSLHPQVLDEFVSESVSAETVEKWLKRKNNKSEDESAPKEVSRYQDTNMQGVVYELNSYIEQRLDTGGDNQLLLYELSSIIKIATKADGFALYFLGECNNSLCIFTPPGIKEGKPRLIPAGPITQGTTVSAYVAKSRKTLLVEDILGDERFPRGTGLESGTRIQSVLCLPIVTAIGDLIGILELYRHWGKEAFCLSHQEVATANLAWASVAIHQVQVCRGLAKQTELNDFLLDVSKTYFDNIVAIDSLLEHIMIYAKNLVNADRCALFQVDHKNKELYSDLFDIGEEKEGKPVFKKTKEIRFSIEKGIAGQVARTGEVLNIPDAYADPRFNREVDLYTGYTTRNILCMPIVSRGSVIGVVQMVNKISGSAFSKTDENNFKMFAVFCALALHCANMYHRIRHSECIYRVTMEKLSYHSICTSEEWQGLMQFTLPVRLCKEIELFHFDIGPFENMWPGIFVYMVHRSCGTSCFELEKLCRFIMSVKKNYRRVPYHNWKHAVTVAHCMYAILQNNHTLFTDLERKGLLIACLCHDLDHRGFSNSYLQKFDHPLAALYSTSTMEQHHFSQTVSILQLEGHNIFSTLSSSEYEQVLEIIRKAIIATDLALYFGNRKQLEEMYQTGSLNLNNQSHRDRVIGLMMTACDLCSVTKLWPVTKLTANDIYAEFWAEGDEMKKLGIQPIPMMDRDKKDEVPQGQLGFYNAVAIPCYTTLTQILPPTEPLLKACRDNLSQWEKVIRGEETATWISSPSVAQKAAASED

Structure (SMILES) | IC50 (PDE10A) [nM] | Rat mCl [1] | Human mCl [2]
CCc1ccc(CNC(=O)c2cn(CC)c(=O)c3cc(OC)c(OC)cc23)cc1 [Example 313, 2-Ethyl-N-[(4-ethylphenyl)methyl]-6,7-dimethoxy-1-oxo-isoquinoline-4-carboxamide] | 200 to 500 | ++ (<100 μl min^−1 mg^−1) | ++ (<100 μl min^−1 mg^−1)
CCC(CC)n1cc(C(=O)NCc2cc(C)no2)c2cc(OC)c(OC)cc2c1=O [Example 241, 6,7-Dimethoxy-N-((3-methylisoxazol-5-yl)methyl)-1-oxo-2-(pentan-3-yl)-1,2-dihydroisoquinoline-4-carboxamide] | 100 to 200 | + (100-220 μl min^−1 mg^−1) | ++ (<100 μl min^−1 mg^−1)
CCC(CC)n1cc(C(=O)NCc2nccs2)c2cc(OC)c(OC)cc2c1=O [Example 228, 2-(1-Ethyl-propyl)-6,7-dimethoxy-1-oxo-1,2-dihydro-isoquinoline-4-carboxylic acid (thiazol-2-ylmethyl)-amide] | 100 to 200 | ++ (<100 μl min^−1 mg^−1) | ++ (<100 μl min^−1 mg^−1)
CCC(CC)n1cc(C(=O)NC2CCc3ncccc32)c2cc(OC)c(OC)cc2c1=O (stereo not drawn) [Example 186, 2-(1-Ethyl-propyl)-6,7-dimethoxy-1-oxo-1,2-dihydro-isoquinoline-4-carboxylic acid (6,7-dihydro-5H-[1]pyrindin-5-yl)-amide] | 100 to 200 | ++ (<100 μl min^−1 mg^−1) | ++ (<100 μl min^−1 mg^−1)
CCC(C)n1cc(C(=O)NC2CCc3ccccc32)c2cc(OC)c(OC)cc2c1=O (stereo not drawn) [Example 197, 2-sec-Butyl-6,7-dimethoxy-1-oxo-1,2-dihydro-isoquinoline-4-carboxylic acid indan-1-ylamide] | 100 to 200 | + (100-220 μl min^−1 mg^−1) | ∘ (>220 μl min^−1 mg^−1)
CCn1cc(C(=O)Nc2ccc(N3CCOCC3)cc2)c2cc(OC)c(OC)cc2c1=O [Example 141, 2-Ethyl-6,7-dimethoxy-N-(4-morpholinophenyl)-1-oxo-1,2-dihydroisoquinoline-4-carboxamide] | 100 to 200 | ++ (<100 μl min^−1 mg^−1) | ++ (<100 μl min^−1 mg^−1)
CCCCNC(=O)c1cn(CC)c(=O)c2cc(OC)c(OCCc3ccc4ccccc4n3)cc12 [Example 136, 2-Ethyl-7-methoxy-1-oxo-6-(2-quinolin-2-yl-ethoxy)-1,2-dihydro-isoquinoline-4-carboxylic acid butylamide] | < 100 | ∘ (>220 μl min^−1 mg^−1) | + (100-220 μl min^−1 mg^−1)
CCC(CC)n1cc(C(=O)NC2CCc3ncccc32)c2cc(OC)c(OC)cc2c1=O (single isomer, unassigned; (+)) [Example 199, (+)-2-(1-Ethyl-propyl)-6,7-dimethoxy-1-oxo-1,2-dihydro-isoquinoline-4-carboxylic acid (6,7-dihydro-5H-[1]pyrindin-5-yl)-amide] | 200 to 500 | ++ (<100 μl min^−1 mg^−1) | ++ (<100 μl min^−1 mg^−1)
CCn1cc(C(=O)NCc2ccc(C(C)C)cc2)c2cc(OC)c(OC)cc2c1=O [Example 312, 2-Ethyl-N-[(4-isopropylphenyl)methyl]-6,7-dimethoxy-1-oxo-isoquinoline-4-carboxamide] |  | ++ (<100 μl min^−1 mg^−1) | + (100-220 μl min^−1 mg^−1)
COc1cc2c(C(=O)NC3CCc4ccccc43)cn(C3CC3)c(=O)c2cc1OC (stereo not drawn) [Example 196, 2-Cyclopropyl-6,7-dimethoxy-1-oxo-1,2-dihydro-isoquinoline-4-carboxylic acid indan-1-ylamide] |  | ++ (<100 μl min^−1 mg^−1) | ++ (<100 μl min^−1 mg^−1)
CCn1cc(C(=O)N[C@H](C)c2ccc(C)cc2)c2cc(OC)c(OC)cc2c1=O [Example 314, 2-Ethyl-6,7-dimethoxy-1-oxo-N-[(1R)-1-(p-tolyl)ethyl]isoquinoline-4-carboxamide] |  | ++ (<100 μl min^−1 mg^−1) | ++ (<100 μl min^−1 mg^−1)
